Measured values as given in US9585854B2, “N-acetyl-L-cysteine for use in in vitro fertilization” (IASOMAI AB, priority 2012, dated 2017).
“And” between values parts separate entries of the source, which are not always exact repeats. Equal entries are not always repeated. Where two headings read alike, the source gives them in different places.

What was measured:
[1] = cited from earlier work
human spermatozoa = test: human sperm motility bioassay (toxicity test); format: cell-based
Experimental: The eventual occurrence of NAC embryotoxicity was preliminary tested.
Assessments of human sperm motility were performed on fresh samples taken from 3 healthy donors with good seminal parameters including sperm motility and velocity. Migration or “Swim-up” on human sperm preparation medium was applied to select motile spermatozoa. After selection each semen sample was divided into 3 aliquots transferred to Eppendorf tubes. In addition to one control tube, two tubes had NAC added at concentrations of 100 and 1,000 nM. Tubes were incubated in a 5% CO2 environment, with constant temperature and humidity conditions for 24 hours. Sperm motility was assessed using a contrast phase microscope at a 400 times magnification after 1, and 24 hours of exposure to NAC. Assessment was performed over a fixed time interval of 2 minutes. Nine samples were assessed for sperm motility and velocity by 36 measurements (2 measurements at 1 and 24 h per sample).

uterine contractions = test: clinical case: intravenous NAC prior to embryo transfer; format: in vivo, human; details: patient, NAC 50 mg/kg intravenous infusion 60 min
Experimental: The very first case of clinical application of NAC prior to embryo transfer was recently documented. NAC was administered in a concentration of 50 mg/kg to a patient who had previously undergone five embryo transfers involving a total number of 8 good-quality embryos. Immediately before embryo transfer, the presence of increased uterine contractile activity was confirmed by ultrasound. NAC 50 mg/kg body weight was administered in intravenous infusion for 60 min. Embryo transfer was carried out 60 min from the end of the 60 min NAC 50 mg/kg body weight administration. Both before connecting the infusion and directly before embryo transfer, a transvaginal sagittal scan recording was performed.

[2] = system: cancer cells of epithelial origin; details: cited from earlier work
[3] = thiol residue easily oxidized by oxygen, light and other radiations; cited from earlier work
1-cell rabbit embryos [4] = system: 1-cell rabbit embryos
From the text: (§2) To verify the embryotoxicity of NAC the application of two embryotoxicity techniques—rabbit embryo bioassay and human sperm motility bioassay—were used.

IVF = test: NAC administration in connection with IVF treatment (clinical outcome); format: in vivo, human
From the text: To date, NAC has not been considered a drug in fertility treatment although it has been used for oral treatment of endometrioses as described in EP 2305238. In that study no conclusions about pregnancies were made. To the contrary when being treated for endometriosis it was not expected that any pregnancies could occur. […] This was one of the reasons why the present inventors started investigating whether NAC could be used in connection with IVF.
Already from the start of IVF it has been a problem that the clinical outcome in IVF treatment is low.
(§1) The composition of the present invention, comprising NAC for the treatment of IVF according to one embodiment to be administered intravenously at a dose between approximately 50 and 150 mg/kg/day.
In still another embodiment of the present invention the composition comprises NAC to be administered orally at a dose of approximately 30-45 mg/kg/day.

[5] = cited from earlier work; remark: listed apart in the source
1-cell rabbit embryos [6] = test: rabbit embryo bioassay (embryotoxicity)
From the text: as §2

pregnancy = test: pulsed oral administration of NAC to patients; format: in vivo, human; details: three consecutive days a week
Experimental: Below is the result from giving pulsed administration of NAC to 15 patients, 8 of which became pregnant. According to this, NAC was administered to patients per os for 3 months or more according to the following schedule: 600 mg three times a day, three consecutive days a week. […] 7, no. 4, pp. 355-359, 2007.]; (2) splitting the total dose in 3 is simple for patients and, with reference to the known NAC pharmacokinetics [[…] and […], “Pharmacokinetic and pharmacodynamic studies of N-acetylcysteine, a potential chemopreventive agent during a phase I trial,” Cancer Epidemiology Biomarkers and Prevention, vol. 4, no. 3, pp. 245-251, 1995.], grants a nearly constant plasma level of the drug; (3) the four-day medication-free interval provides a washout period useful to limit the reported decrease of NAC plasma level observed during prolonged treatments. According to examples described in the specification 15 patients were treated with pulsed administration of N-acetyl-L-cysteine for use in IVF orally in a dose of 600 mg three times a day during three consecutive days followed by four days of interruption during 3 months or more.

[7] = set-up: species or system human; details: in vivo
From the text: GSH is e.g. normally conjugated to reactive metabolites formed by paracetamol and helps detoxify them. When paracetamol is overdosed GSH is however depleted and the paracetamol metabolites start reacting with cellular proteins, eventually leading to cell death. In the treatment of fulminant hepatic failure after paracetamol poisoning NAC acts instead of GSH in the detoxification of paracetamol metabolites.
as §1
For overcoming this in cases of oral administration, an option is to provide NAC in a formulation with gastric protection, suitable for preventing NAC release/solubility in the stomach. Such formulations are well known in the art and may be used with the present invention. For example, tablet coatings that are resistant to gastric fluids and allow release of the drug only in the intestine, after its transit through the stomach, may be used. Commonly used formulations include polymers such as cellulose derivatives, methacrylate amino ester copolymers. […]

[8] = concentrations up to 50-fold therapeutic blood concentrations

## CC(=O)N[C@@H](CS)C(=O)O [NAC, N-acetyl-L-cysteine]
[1]; Pendyala and Creaven 1995
  NAC plasma level after prolonged treatments: decrease in NAC plasma level
[1]; in vivo
  diffusion in tissues and cells: freely diffuses in almost all tissues and cells
  peak concentration in plasma reached in: about one
[1]; plasma
  half-life: about three
Human spermatozoa
  adverse influence on human spermatozoa: failed to show an adverse influence
Human spermatozoa; NAC 100 and 1,000 nM, 1 and 24 hours of exposure
  human sperm motility or velocity compared to controls: no effects
Human spermatozoa; [8]
  embryotoxic effect: failed to detect an embryotoxic effect
Uterine contractions
  amplitude of uterine contractions: apparent decrease in their amplitude
Uterine contractions; from 10 contractions per 3 min before infusion, transvaginal scan
  uterine contractions directly before embryo transfer: five
[2]; Cell Death and Differentiation 2005
  effect on proliferation of cancer cells of epithelial origin: marked antiproliferative effect
[2]; NAC-treated cancer cells
  cell-cell and cell-substratum adhesion complexes: considerable increase
[3]
  stability: not a stable molecule
1-cell rabbit embryos [4]
  survival of 1-cell rabbit embryos: not to affect the survival of 1-cell rabbit embryos
IVF; NAC preferably a few days prior to IVF treatment
  live births: higher percentage of live births
IVF; intravenous, lower limit approximately 50 mg/kg/day
  effectiveness in IVF: effective in IVF
IVF; one person who had taken NAC orally for endometriosis, two previous IVF trials failed
  IVF outcome: successful IVF treatment
IVF; oral, approximately 30-45 mg/kg/day
  effect in connection with IVF: give effect in connection with IVF
[5]; daily total NAC dose, per os
  side effects: virtually free of side effects
[5]; general, doses in paracetamol poisoning about 40 g/day for 70 kg
  undesired side effect: virtually absent of undesired side effect
[5]; intravenous, higher limit 150 mg/kg/day
  side effects: virtually no side effects
1-cell rabbit embryos [6]
  percentage of hatched rabbit blastocysts: not to decrease the percentage of hatched rabbit blastocysts
1-cell rabbit embryos [6]; [8]
  embryotoxic effect: failed to detect an embryotoxic effect
pregnancy; individual patients 1-8, pulsed oral NAC 600 mg three times a day
  pregnancy after months post NAC treatment: 14 months and 3 months and 1 months (2×) and 19 months and 8 months and 6 months and 0 months
pregnancy; of 15 patients, per os 600 mg three times a day, 3 months or more
  patients who became pregnant: 8
[7]
  side effect of high oral doses: may cause abdominal pain
